From US10344054B2, “Angiotensin-1-receptor antagonists” (Ferring B.V., priority 2016, dated 2019)
Like-named read-outs stand apart in the source and are kept apart here. Residues, ends and D or L forms follow the SMILES beside them.

What was measured:
hAT1R [1] = molecular target: T1, hAT1R (Homo sapiens, UniProt P30556); experiment: FLIPR calcium flux assay, Part I: agonist activity; type: cell-based; conditions: read-out: hAT1R Agonist Efficacy Agonist (%) Ave
T1 sequence (P30556 1-359): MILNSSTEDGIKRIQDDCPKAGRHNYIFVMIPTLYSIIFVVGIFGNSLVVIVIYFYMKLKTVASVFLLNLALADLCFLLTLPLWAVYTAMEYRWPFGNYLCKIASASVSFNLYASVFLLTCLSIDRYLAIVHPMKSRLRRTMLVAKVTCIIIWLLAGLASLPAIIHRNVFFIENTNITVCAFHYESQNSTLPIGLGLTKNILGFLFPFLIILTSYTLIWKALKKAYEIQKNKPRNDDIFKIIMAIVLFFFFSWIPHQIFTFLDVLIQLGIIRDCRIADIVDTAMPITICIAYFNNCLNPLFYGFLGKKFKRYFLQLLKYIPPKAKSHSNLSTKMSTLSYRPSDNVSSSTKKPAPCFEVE
Protocol: (§1) AT1 receptor (AT1R) agonists increase intracellular flux of calcium ions. AT1R antagonists can reduce the agonist effect. […] Compounds were first tested for agonism (Part I) followed by addition of the AT1R agonist angiotensin II to test for antagonist activity (Part II). This assay used a stable hAT1R expressing cell line (ChanTest hAT1R; ChanTest Corp A628). Intracellular flux of calcium in response to agonist was measured through real-time measurement of fluorescence induced through the interaction of Ca2+ (released from intracellular stores) and calcium-sensitive dye. In Part I, cells were exposed to varying concentrations of test compounds and immediately measured for agonist activity (EC50 and Efficacy).
(§2) ChanTest hAT1R stable cells were maintained in Ham's F12 containing 10% (v/v) heat inactivated fetal bovine serum (FBS-HI), 4 mM Glutamax, 1% NEAA, 50 ng/mL plasmocin, 400 μg/mL G418 at 37° C. under 5% CO2 in a humidified atmosphere.
(§3) For FLIPR assay, ChanTest hAT1R cells were trypsinized with 6 ml of Trypsin EDTA solution and harvested in phenol-red free DMEM containing 10% FBS-HI, 4 mM Glutamax and counted, spun down and resuspended in the same medium. The cell suspension was added to the wells of 384-well black PDL clear bottom plates at 2.5×10^4 cells/well, 20 μl/well.
(§4) Preparation of Loading Buffer:
(§5) • Loading Buffer: 1 vial of Calcium 5 Bulk Assay reagent was dissolved in 100 ml of 1× HBSS-20 mM Hepes buffer. • Probenecid was resuspended at 1 M in 1 M NaOH. Once the probenecid had gone into solution, an equal volume of H2O was added to make a solution of 500 mM followed by a 1:100 dilution in the Loading Buffer for a working concentration of 5 mM. The pH was adjusted to 7.4 using 1 M NaOH. Loading the Cells with Loading Buffer • Cell plates were removed from the incubator and 25 μl of Loading Buffer containing probenecid (5 mM) added to each well. • Plates were incubated for 1 hour at 37° C. under 5% CO2 in a humidified atmosphere. […] The remaining steps of the assay were carried forward by FLIPR Tetra. A baseline reading was taken at 1-second (s) intervals for 10 s followed by the addition of 5 μl of 10× compounds. The compound-induced fluorescence signal was then measured for 3 minutes with readings taken at 1-s intervals. • The cell plate was removed from the FLIPR and set aside for an additional 17 minutes. • The cell plate was then transferred back to the FLIPR Tetra, along with the 384 well Angiotensin II agonist dilution plate. A baseline reading was taken at 1-second (s) intervals for 10 seconds, followed by the addition of 5.5 μl of 10× Angiotensin II agonist. The agonist-induced fluorescence signal was then measured for 3 minutes with readings taken at 1-s intervals. • Overall, each well in the FLIPR assay was composed of the following components in a total volume of 55.5 μl:
(§6) Time-course results from the FLIPR Calcium 5 assay were expressed as relative fluorescence light units (RFU). The maximum minus minimum values (Max−Min) were used to quantify the strength of the signal. Mean RFU were calculated from replicate values and plotted on the y-axis versus compound concentration on a logarithmic scale on the x-axis, and a single-binding site, four parameter concentration response model: (MIN+((MAX−MIN)/(1+((EC50/x)^Hill)))), was used to perform non-linear regression analysis, generating concentration response curves. Reported parameters included agonist potency EC50 (the concentration causing half-maximal agonist response), antagonist potency IC50 (the concentration causing half-maximal inhibition of the agonist response for antagonist compounds) and efficacy (% MPE: percent of the maximal possible effect).

hAT1R [2] = molecular target: T1, hAT1R; experiment: FLIPR calcium flux assay, Part II: antagonist activity against Angiotensin II; type: cell-based; conditions: for Emax: read-out: hAT1R Antagonist Efficacy Antag (%) Ave; for hAT1R Antagonist Efficacy Antag (%) Ave: Angiotensin II 10 nM final concentration
Protocol: as §1, §2, §3, §4, §5, §6

[3] = ChanTest hAT1R stable cells, % MPE, percent of the maximal possible effect
[4] = read-out: hAT1R Antagonist IC50 Ave

| Compound | Emax (hAT1R [1]; [3]) | Emax (hAT1R [2]) | IC50 (hAT1R [2]; [4]) | Emax (hAT1R [1]) | IC50 (hAT1R [2]) |
| --- | --- | --- | --- | --- | --- |
| CNCC(=O)N[C@@H](CCCNC(=N)N)C(=O)N[C@H](C(=O)N[C@@H](Cc1ccc(O)cc1)C(=O)N[C@@H](CC1CCCCC1)C(=O)N[C@@H](Cc1c[nH]cn1)C(=O)N1CCC[C@H]1C(=O)N[C@H](Cc1cccc2ccccc12)C(=O)O)C(C)C [Compound 14, Sar-Arg-Val-Tyr-Cha-His-Pro-(D-1Nal)-OH] (HELM PEPTIDE1{[Sar].R.V.Y.[Cha].H.P.[O=C(O)[C@@H](Cc1cccc2ccccc12)N[*:1]]}$$$$V2.0) | 5% | 100% | 8 nM |  |  |
| CNCC(=O)N[C@@H](CCCNC(=N)N)C(=O)N[C@H](C(=O)N[C@@H](Cc1ccc(O)cc1)C(=O)N[C@H](C(=O)N[C@@H](Cc1c[nH]cn1)C(=O)N1CCC[C@H]1C(=O)N[C@H](Cc1cccc2ccccc12)C(=O)O)C1CCCC1)C(C)C [Compound 15, Sar-Arg-Val-Tyr-Cpg-His-Pro-(D-1Nal)-OH] (HELM PEPTIDE1{[Sar].R.V.Y.[O=C([C@@H](N[*:1])C1CCCC1)[*:2]].H.P.[O=C(O)[C@@H](Cc1cccc2ccccc12)N[*:1]]}$$$$V2.0) | 6% | 100% | 4.6 nM |  |  |
| CNCC(=O)N[C@@H](CCCNC(=N)N)C(=O)N[C@H](C(=O)N[C@@H](Cc1ccc(O)cc1)C(=O)N[C@@H](Cc1ccccc1)C(=O)N[C@@H](Cc1c[nH]cn1)C(=O)N1CCC[C@H]1C(=O)N[C@H](Cc1cccc2ccccc12)C(=O)O)C(C)C [Compound 16, Sar-Arg-Val-Tyr-Phe-His-Pro-(D-1Nal)-OH] (HELM PEPTIDE1{[Sar].R.V.Y.F.H.P.[O=C(O)[C@@H](Cc1cccc2ccccc12)N[*:1]]}$$$$V2.0) | 6% | 99% | 5 nM |  |  |
| CNCC(=O)N[C@@H](CCCNC(=N)N)C(=O)N[C@H](C(=O)N[C@@H](Cc1ccc(O)cc1)C(=O)N[C@H](C(=O)N[C@@H](Cc1c[nH]cn1)C(=O)N1CCC[C@H]1C(=O)N[C@H](Cc1cccc2ccccc12)C(=O)O)[C@@H](C)OC)C(C)C [Compound 17, Sar-Arg-Val-Tyr-Thr(Me)-His-Pro-(D-1Nal)-OH] |  | 100% |  | 4% | 6 nM |
| CNCC(=O)N[C@@H](CCCNC(=N)N)C(=O)N[C@H](C(=O)N[C@@H](Cc1ccc(O)cc1)C(=O)N[C@H](C(=O)N[C@@H](Cc1c[nH]cn1)C(=O)N1CCC[C@H]1C(=O)N[C@H](Cc1ccccc1Cl)C(=O)O)C1CCCC1)C(C)C [Compound 18, Sar-Arg-Val-Tyr-Cpg-His-Pro-(D-Phe(2-Cl))—OH] (HELM PEPTIDE1{[Sar].R.V.Y.[O=C([C@@H](N[*:1])C1CCCC1)[*:2]].H.P.[O=C(O)[C@@H](Cc1ccccc1Cl)N[*:1]]}$$$$V2.0) | 3% | 99% | 10.1 nM |  |  |
| CNCC(=O)N[C@@H](CCCNC(=N)N)C(=O)N[C@H](C(=O)N[C@@H](Cc1ccc(O)cc1)C(=O)N[C@H](C(=O)N[C@@H](Cc1c[nH]cn1)C(=O)N1CCC[C@H]1C(=O)N[C@H](Cc1ccccc1Cl)C(=O)O)C1CCCCC1)C(C)C [Compound 19, Sar-Arg-Val-Tyr-Chg-His-Pro-(D-Phe(2-Cl))—OH] (HELM PEPTIDE1{[Sar].R.V.Y.[O=C([C@@H](N[*:1])C1CCCCC1)[*:2]].H.P.[O=C(O)[C@@H](Cc1ccccc1Cl)N[*:1]]}$$$$V2.0) | 8% | 99% | 14.1 nM |  |  |
| CNCC(=O)N[C@@H](CCCNC(=N)N)C(=O)N[C@H](C(=O)N[C@@H](Cc1ccc(O)cc1)C(=O)N[C@@H](Cc1ccc(N)cc1)C(=O)N[C@@H](Cc1c[nH]cn1)C(=O)N1CCC[C@H]1C(=O)N[C@H](Cc1ccccc1Cl)C(=O)O)C(C)C [Compound 20, Sar-Arg-Val-Tyr-Aph-His-Pro-(D-Phe(2-Cl))—OH] (HELM PEPTIDE1{[Sar].R.V.Y.[Nc1ccc(C[C@H](N[*:1])C(=O)[*:2])cc1].H.P.[O=C(O)[C@@H](Cc1ccccc1Cl)N[*:1]]}$$$$V2.0) | 5% | 99% | 5.2 nM |  |  |
| CNCC(=O)N[C@@H](CCCNC(=N)N)C(=O)N[C@H](C(=O)N[C@@H](Cc1ccc(O)cc1)C(=O)N[C@H](C(=O)N[C@@H](Cc1c[nH]cn1)C(=O)N1CCC[C@H]1C(=O)N[C@H](Cc1ccccc1Cl)C(=O)O)[C@@H](C)OC)C(C)C [Compound 21, Sar-Arg-Val-Tyr-Thr(Me)-His-Pro-(D-Phe(2-Cl))—OH] | 2% | 99% | 10.6 nM |  |  |
| CNCC(=O)N[C@@H](CCCNC(=N)N)C(=O)N[C@H](C(=O)N[C@@H](Cc1ccc(O)cc1)C(=O)N[C@@H](Cc1ccsc1)C(=O)N[C@@H](Cc1c[nH]cn1)C(=O)N1CCC[C@H]1C(=O)N[C@H](Cc1ccccc1Cl)C(=O)O)C(C)C [Compound 22, Sar-Arg-Val-Tyr-(3-Thi)-His-Pro-(D-Phe(2-Cl))—OH] (HELM PEPTIDE1{[Sar].R.V.Y.[O=C([C@H](Cc1ccsc1)N[*:1])[*:2]].H.P.[O=C(O)[C@@H](Cc1ccccc1Cl)N[*:1]]}$$$$V2.0) | 3% | 99% | 5 nM |  |  |
| CNCC(=O)N[C@@H](CCCNC(=N)N)C(=O)N[C@H](C(=O)N[C@@H](Cc1ccc(O)cc1)C(=O)N[C@@H](Cc1cccs1)C(=O)N[C@@H](Cc1c[nH]cn1)C(=O)N1CCC[C@H]1C(=O)N[C@H](Cc1ccccc1Cl)C(=O)O)C(C)C [Compound 23, Sar-Arg-Val-Tyr-(2-Thi)-His-Pro-(D-Phe(2-Cl))—OH] (HELM PEPTIDE1{[Sar].R.V.Y.[O=C([C@H](Cc1cccs1)N[*:1])[*:2]].H.P.[O=C(O)[C@@H](Cc1ccccc1Cl)N[*:1]]}$$$$V2.0) | 4% | 98% | 5.2 nM |  |  |
| CNCC(=O)N[C@@H](CCCNC(=N)N)C(=O)N[C@H](C(=O)N[C@@H](Cc1ccc(O)cc1)C(=O)N[C@@H](Cc1cscn1)C(=O)N[C@@H](Cc1c[nH]cn1)C(=O)N1CCC[C@H]1C(=O)N[C@H](Cc1ccccc1Cl)C(=O)O)C(C)C [Compound 24, Sar-Arg-Val-Tyr-(Ala(4-Thz))-His-Pro-(D-Phe(2-Cl))—OH] (HELM PEPTIDE1{[Sar].R.V.Y.[O=C([C@H](Cc1cscn1)N[*:1])[*:2]].H.P.[O=C(O)[C@@H](Cc1ccccc1Cl)N[*:1]]}$$$$V2.0) | 4% | 99% | 7 nM |  |  |
| CC[C@H](C)[C@H](NC(=O)[C@H](Cc1ccc(O)cc1)NC(=O)[C@@H](NC(=O)[C@H](CCCNC(=N)N)NC(=O)CNC)C(C)C)C(=O)N[C@@H](Cc1c[nH]cn1)C(=O)N1CCC[C@H]1C(=O)N[C@H](Cc1ccccc1Cl)C(=O)O [Compound 25, Sar-Arg-Val-Tyr-Ile-His-Pro-(D-Phe(2-Cl))—OH] | 2% | 100% | 11.6 nM |  |  |
| CNCC(=O)N[C@@H](CCCNC(=N)N)C(=O)N[C@H](C(=O)N[C@@H](Cc1ccc(O)cc1)C(=O)N[C@H](C(=O)N[C@@H](Cc1c[nH]cn1)C(=O)N1CCC[C@H]1C(=O)N[C@H](Cc1ccccc1C(F)(F)F)C(=O)O)C1CCCCC1)C(C)C [Compound 26, Sar-Arg-Val-Tyr-Chg-His-Pro-(D-Phe(2-CF3))—OH] (HELM PEPTIDE1{[Sar].R.V.Y.[O=C([C@@H](N[*:1])C1CCCCC1)[*:2]].H.P.[O=C(O)[C@@H](Cc1ccccc1C(F)(F)F)N[*:1]]}$$$$V2.0) | 12% | 99% | 32.9 nM |  |  |
